Reference: patent US7439253B2, “Heterocyclic compounds, their preparation and their use as medicaments, in particular as antibacterials and beta-lactamase inhibitors” (Novexel, priority 2002, dated 2008)
Structures can show the parent of a compound that is named as a salt. Where two headings read alike, the source gives them in different places.

Assays:
[1] = target: T1, β-lactamase TEM1 (Escherichia coli, UniProt P62593); assay: β-lactamase inhibiting activity (Nitrocefin hydrolysis); assay type: biochemical, E. coli 250HT21
T1 construct: The β-lactamases are isolated from bacterial strains resistant to penicillins and to cephalosporins; endogenous in cells; host or cells: E. coli 250HT21 (soluble fraction of French-press lysate, 100 000 G supernatant)
Description: (§1) A. Preparation of the β-lactamases Tem˜1 and P99
(§2) The β-lactamases are isolated from bacterial strains resistant to penicillins and to cephalosporins (Tem1 and P99 are produced by E. coli 250HT21 and E. Cloacae 293HT6, respectively).
(§3) The bacteria are cultured in heart-brain broth at 37 g/l (DIFCO), at 37° C. They are harvested at the end of the exponential phase, cooled and centrifuged. The bacterial pellets are taken up in 50 mM sodium phosphate buffer pH 7.0 and again centrifuged. The bacteria are taken up in two volumes of this same buffer and lyzed by means of a French-Press kept at 4° C. After centrifugation for 1 h at 100 000 G, at 4° C., the supernatants containing the soluble fraction of the bacterial extracts are recovered and frozen at −80° C.
(§4) B. Determination of the β-lactamase Activity
(§5) The method uses, as substrate, Nitrocefin (OXOID), a chromogenic cephalosporin, whose product of hydrolysis by Beta-lactamases is red and absorbs at 485 nm. The β-lactamase activity is kinetically determined by measuring the variation in absorbance at 485 nm resulting from the hydrolysis of the substrate on a plate spectrophotometer (Spectra Max Plus from Molecular Devices). The experiments are performed at 37° C. The quantity of enzyme was normalized and the measurements are performed at the initial speed.
(§6) C. Determination of the β-lactamase Inhibiting Activity
(§7) Two measurements are carried out, without preincubation and with preincubation of the enzyme and of the inhibitor (5 min), in order to test the irreversibility of the reaction. The products are tested at 6 or 8 concentrations in duplicate. The reaction mixture contains 100 μM of Nitrocefin and 50 mM sodium phosphate buffer pH 7.0. D. Calculations of the IC50 Values
(§8) The rates of hydrolysis are measured with and without inhibitor. The concentration of inhibitor which inhibits by 50% the reaction of hydrolysis of Nitrocefin by the enzyme (IC50) is determined. The data processing is carried out with the aid of the GraFit software (Erathycus Software).

[2] = target: T2, β-lactamase P99 (Enterobacter cloacae, UniProt P05364); assay: biochemical; assay type: biochemical
T2 construct: The β-lactamases are isolated from bacterial strains resistant to penicillins and to cephalosporins; endogenous in cells; host or cells: E. cloacae 293HT6 (soluble fraction of French-press lysate, 100 000 G supernatant)
Description: as §1, §2, §3, §4, §5, §6, §7, §8

[3] = 100 μM Nitrocefin, 50 mM sodium phosphate buffer pH 7.0, 37° C., read-out: IC50 nM/TEM1
[4] = 100 μM Nitrocefin, 50 mM sodium phosphate buffer pH 7.0, 37° C.

T2 sequence (P05364 21-381): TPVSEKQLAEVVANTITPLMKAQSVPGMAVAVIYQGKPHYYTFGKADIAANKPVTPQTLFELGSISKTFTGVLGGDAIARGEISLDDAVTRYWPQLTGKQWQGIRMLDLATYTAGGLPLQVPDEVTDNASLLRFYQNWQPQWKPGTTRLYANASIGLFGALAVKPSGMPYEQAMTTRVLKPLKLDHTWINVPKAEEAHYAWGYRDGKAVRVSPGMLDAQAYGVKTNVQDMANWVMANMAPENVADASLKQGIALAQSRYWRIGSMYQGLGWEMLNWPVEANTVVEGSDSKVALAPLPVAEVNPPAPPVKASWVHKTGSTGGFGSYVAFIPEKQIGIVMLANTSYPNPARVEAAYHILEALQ
T1 sequence (P62593 24-286 limits assumed): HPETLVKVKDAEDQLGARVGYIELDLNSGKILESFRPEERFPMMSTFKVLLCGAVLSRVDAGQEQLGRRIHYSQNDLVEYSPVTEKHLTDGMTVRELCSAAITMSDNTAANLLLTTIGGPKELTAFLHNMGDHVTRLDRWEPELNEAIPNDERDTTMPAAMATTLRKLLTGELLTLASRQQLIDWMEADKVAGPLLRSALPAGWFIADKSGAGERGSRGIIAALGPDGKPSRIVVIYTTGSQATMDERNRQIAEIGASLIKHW

Row | Compound | IC50 [1, 3] [nM] | IC50 ([2]; pH 7) [nM] | IC50 [2, 4] [nM] | IC50 [1] [nM]
1 | CCOC(=O)[C@H]1c2ccc(OS(=O)(=O)C(F)(F)F)cc2[C@@H]2CN1C(=O)N2OS(=O)(=O)O (relative stereo) [Example 40, Sodium Salt of ethyl trans-1,2,3,5-tetrahydro-3-oxo-2-(sulfoxy)-8-[[(triluoromethyl)sulfonyl]oxy]-1,4-methano-4H-2,4-benzodiazepine-5-carboxylate] | 11 | 12 | – | –
2 | CCOC(=O)[C@@H]1c2c(-c3ccc(F)cc3)csc2[C@H]2CN1C(=O)N2OS(=O)(=O)O (relative stereo) [Example 44, Sodium Salt of ethyl trans-3-(4-fluorophenyl)-4,6,7,8-tetrahydro-6-oxo-7-(sulfoxy)-5,8-methano-5H-thieno[2,3-e][1,3]diazepine-4-carboxylate] | 34 | 2 | – | –
3 | CCOC(=O)[C@H]1c2cccc(OC(=O)Nc3ccccc3)c2[C@@H]2CN1C(=O)N2OS(=O)(=O)O (relative stereo) [Example 28, Sodium Salt of Ethyl Trans-1,2,3,5-tetrahydro-3-oxo-9-[[(phenylamino)carbonyl]oxy]-2-(sulfoxy)-1,4-methano-4H-2,4-benzodiazepine-5-carboxylate] | 33 | – | 25 | –
4 | COC(=O)C1c2sc(-c3ccc(F)cc3)cc2C2CN1C(=O)N2OS(=O)(=O)O (stereo not drawn) [Example 19, Sodium Salt of Methyl Trans-2-(4-fluorophenyl)-4,5,6,8-tetrahydro-6-oxo-5-(sulfoxy)-4,7-methano-7H-thieno[2,3-e][1,3]diazepine-8-carboxylate] | – | – | 16 | 5
